{"source": "patent US6706493B2", "about": "“DNA encoding a cholecystokinin receptor” (The United States of America as represented by the …, priority 1992, dated 2004)", "key": {"CCKA receptor": {"target": "T1, CCKA receptor (Rattus norvegicus, UniProt P30551)", "T1 construct": "expressed in transfected cells; host or cells: Xenopus oocytes injected with in vitro transcribed RNA (clone nt 5 to 1506 in pcDNA-1)", "T1 sequence (P30551 1-444)": "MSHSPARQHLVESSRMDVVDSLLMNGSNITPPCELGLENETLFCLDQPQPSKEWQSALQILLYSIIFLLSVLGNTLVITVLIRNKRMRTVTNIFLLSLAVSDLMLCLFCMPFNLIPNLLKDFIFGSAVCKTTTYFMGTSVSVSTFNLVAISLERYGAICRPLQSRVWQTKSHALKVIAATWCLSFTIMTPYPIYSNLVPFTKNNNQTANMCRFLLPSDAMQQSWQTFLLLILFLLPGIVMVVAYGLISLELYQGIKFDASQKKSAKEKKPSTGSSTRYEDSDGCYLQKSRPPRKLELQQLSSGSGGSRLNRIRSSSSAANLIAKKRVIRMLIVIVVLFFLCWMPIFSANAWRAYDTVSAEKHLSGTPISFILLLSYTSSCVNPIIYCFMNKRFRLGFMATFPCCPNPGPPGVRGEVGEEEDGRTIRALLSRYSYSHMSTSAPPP", "test": "Ligand-induced chloride current in Xenopus oocytes injected with rat CCKA receptor mRNA", "type": "cell-based", "conditions": "oocytes voltage clamped at -70 mV, 1 and 2 days after injection; FIG. 5A: 1 μM CCK-8, 1 μM gastrin-releasing peptide, 4 μM substance P", "experimental": "FIGS. 5A and 5B. Expression of the CCKA receptor in Xenopus oocytes. Ligand, induced chloride currents measured in the same oocytes one (A) and two (B) days after injection of mRNA (25 ng) in vitro transcribed from CCKA receptor cDNA cloned from rat pancreas. A. Response to agonists.\nDNA was in vitro transcribed using T7 RNA polymerase from a CCK receptor clone template (5 to 1506, FIG. 1, SEQ NO:13) in pcDNA-1 (5 μg linearized with Apa 1) in the presence of the cap analog m^7G(5′)ppp(5′)G as recommended by the manufacturer (Promega). Xenopus oocytes were injected with 50 nl of approximately 25 ng of transcribed RNA. At 1-2 days, oocytes were voltage clamped at −70 mV, ligands were applied rapidly and directly to the constantly perfused bath and the ligand dependent Cl^− current measured."}, "substance P receptor": {"target": "T2, substance P receptor (Rattus norvegicus, UniProt P14600)", "T2 construct": "expressed in transfected cells; host or cells: Xenopus oocytes injected with receptor mRNA", "T2 sequence (P14600 whole entry)": "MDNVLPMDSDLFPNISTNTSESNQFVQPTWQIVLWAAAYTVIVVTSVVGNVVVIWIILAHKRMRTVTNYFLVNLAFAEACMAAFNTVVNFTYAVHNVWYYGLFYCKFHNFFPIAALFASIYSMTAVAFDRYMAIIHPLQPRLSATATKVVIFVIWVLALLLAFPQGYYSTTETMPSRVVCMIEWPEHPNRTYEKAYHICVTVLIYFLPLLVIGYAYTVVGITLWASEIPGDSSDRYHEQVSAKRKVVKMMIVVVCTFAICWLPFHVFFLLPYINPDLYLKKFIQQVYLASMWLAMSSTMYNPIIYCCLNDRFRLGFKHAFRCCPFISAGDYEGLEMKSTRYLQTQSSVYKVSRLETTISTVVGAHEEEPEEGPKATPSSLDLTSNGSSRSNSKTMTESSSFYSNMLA", "test": "L-364,718 on SP response in oocytes injected with SP receptor mRNA", "type": "cell-based", "description": "(§1) Inhibition was specific for CCKA receptors (i.e., there was no inhibition of SP or ACh response in oocytes injected with their respective receptor mRNAs)."}, "acetylcholine receptor": {"tested_on": "acetylcholine receptor", "test": "L-364,718 on ACh response in oocytes injected with ACh receptor mRNA", "type": "cell-based", "description": "as §1"}, "CCKB receptor": {"target": "T3, CCKB receptor (Rattus norvegicus, UniProt P30553)", "T3 sequence (P30553 1-452)": "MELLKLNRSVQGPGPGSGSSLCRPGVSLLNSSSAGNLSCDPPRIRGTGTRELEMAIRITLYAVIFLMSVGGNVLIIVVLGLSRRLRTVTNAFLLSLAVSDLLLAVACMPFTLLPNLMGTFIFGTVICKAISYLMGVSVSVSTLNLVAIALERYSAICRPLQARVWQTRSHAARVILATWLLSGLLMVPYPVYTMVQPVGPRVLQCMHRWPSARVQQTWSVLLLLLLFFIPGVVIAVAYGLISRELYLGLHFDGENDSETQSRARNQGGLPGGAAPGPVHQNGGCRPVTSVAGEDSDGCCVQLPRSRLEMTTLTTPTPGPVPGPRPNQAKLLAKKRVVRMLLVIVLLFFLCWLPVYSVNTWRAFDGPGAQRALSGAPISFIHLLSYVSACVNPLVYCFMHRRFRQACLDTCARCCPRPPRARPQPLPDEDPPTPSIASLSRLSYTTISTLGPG", "conditions": "COS-7 cells, rat CCKB receptor cDNA, 50 pM radioligand", "method": "Each experiment was performed in duplicate and the results given are the means from at least two separate experiments.\nTwo micrograms of PCDL-SRα containing either the CCKA coding region insert subcloned at an Xba 1 site in the sense orientation or the CCKB insert subcloned at an Eco R1 site in the sense orientation were transfected into a near confluent 100 mm tissue culture plate containing approximately 1×10^6 COS-7 cells using a DEAE/dextran method. Approximately 48 hours post transfection, the cells were washed twice with phosphate buffered saline (PBS), pH 7.4, 0.1% BSA at 4° C., scraped from the plate in Dulbeccols Modified Eagle's Medium (DMEM), 0.1% BSA, 4° C., centrifuged at 400×G, and resuspended at approximately 3-105 cells per ml in DMEM, 0.1% BSA, 4° C. […] Cells were subsequently washed three times with 2 ml PBS, 0.1% BSA, 4° C. by filtration on glass filters (Whatman GF/B) using a suction manifold (Millipore). Filters were assayed for gamma radioactivity (Packard, Auto-Gamma)."}}, "note": "Where no end group is shown, it is not given here."}
{"molecule": "substance P", "values": [{"measurement": "response of oocytes to agonist (ligand dependent Cl- current)", "setting": "CCKA receptor", "result": "not"}]}
{"molecule": "gastrin-releasing peptide (VPLPAGGGTVLTKMYPRGNHWAVGHLM; ends and bridges not checked; UniProt P07492 24-50, looked up)", "values": [{"measurement": "response of oocytes to agonist (ligand dependent Cl- current)", "setting": "CCKA receptor", "result": "not"}]}
{"molecule": "CN1C(=O)[C@@H](NC(=O)c2cc3ccccc3[nH]2)N=C(c2ccccc2)c2ccccc21", "note": "[L-364,718]", "values": [{"measurement": "inhibition of SP response", "setting": "substance P receptor", "result": "no inhibition"}, {"measurement": "inhibition of ACh response", "setting": "acetylcholine receptor", "result": "no inhibition"}]}
{"molecule": "Cc1cccc(NC(=O)N[C@@H]2N=C(c3ccccc3)c3ccccc3N(C)C2=O)c1", "note": "[L-365,260]", "values": [{"measurement": "potency at inhibiting 125I-BH-CCK-8 binding relative to L-364,718", "setting": "CCKB receptor", "result": "10-100 fold"}]}
